Reference: ChEMBL document CHEMBL3046472, “QSAR modeling of photosynthesis-inhibiting nostoclide derivatives” (Pest Manag Sci, 2010)
Active and inactive are the calls of the source. The rule behind the calls is not given here.

Each compound was assayed against Cytochrome b6-f complex subunit 4 (Spinacia oleracea) (UniProt P00166) (assay: Inhibition of photosynthetic electron transport protein complex in Spinacia oleracea (spinach) leaf thylakoid membranes up to 100 uM measured at 30 seconds intervals for 10 min).
Chain of Cytochrome b6-f complex subunit 4 (Spinacia oleracea) (P00166 whole entry, looked up, one chain of several): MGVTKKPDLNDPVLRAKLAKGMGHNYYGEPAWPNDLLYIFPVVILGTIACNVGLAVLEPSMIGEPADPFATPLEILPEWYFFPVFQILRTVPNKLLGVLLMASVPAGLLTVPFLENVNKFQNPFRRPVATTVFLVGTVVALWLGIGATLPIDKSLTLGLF

inhibition, inactive:
O=C1O/C(=C\c2ccc(Cl)cc2)C=C1Cc1ccccc1, O=C1O/C(=C\c2ccccc2O)C=C1Cc1ccccc1, COc1ccc(/C=C2/C=C(Cc3ccccc3)C(=O)O2)cc1O, O=C1O/C(=C\c2ccc(-c3ccccc3)cc2)C=C1Cc1ccccc1, CN(C)c1ccc(/C=C2/C=C(Cc3ccccc3)C(=O)O2)c(Cl)c1, O=C1O/C(=C\c2ccc3c(c2)OCO3)C=C1Cc1ccccc1, Cc1ccc(/C=C2/C=C(Cc3ccccc3)C(=O)O2)cc1, O=C1O/C(=C\c2ccc(Br)cc2)C=C1Cc1ccccc1, N#Cc1cccc(/C=C2/C=C(Cc3ccccc3)C(=O)O2)c1, O=C1O/C(=C\c2ccc(O)cc2)C=C1Cc1ccccc1, O=C1O/C(=C\c2cccc(O)c2)C=C1Cc1ccccc1, N#Cc1ccc(/C=C2/C=C(Cc3ccccc3)C(=O)O2)cc1, CN(C)c1ccc(/C=C2/C=C(Cc3ccccc3)C(=O)O2)cc1
